Reference: patent US7498323B2, “Spiro-piperidine compounds and medicinal use thereof” (Ono Pharmaceuticals Co., Ltd., priority 2003, dated 2009)

Target: Human CCR2 (Homo sapiens, UniProt P41597)
Settings: at 10 μM; human CCR2-expressing cells (THP-1); human MCP-1 30 nM; Ca2+ transient increase
Description: (5) Inhibition test on the binding of MCP-1 to CCR2 (activity of MCP-1 to induce transient increase of Ca ion).
Then, 4-fold to 8-fold 1×Hanks/HEPES (20 mM; pH 7.4)/Probenecid (2.5 mM) was added thereto, followed by further incubation at 37° C. for 30 minutes under shading. After the cells were washed with 1×Hanks/HEPES (20 mM; pH 7.4)/Probenecid (2.5 mM) solution, the cells were suspended again by the same solution to give a density of 2.0×10^6 cells/ml and added to a 96-well plate at 100 μl/well. Each of the test compounds was added, and 3 minutes thereafter, a recombinant human MCP-1 (PeproTach) diluted with 1×Hanks/HEPES (20 mM; pH 7.4)/Probenecid (2.5 mM) was added thereto to a final concentration of 30 nM. Transient increase in the intracellular Ca^2+ concentration induced by the human MCP-1 was measured using a Ca^2+ detector for 96 well use (Hamamatsu Photonics), and inhibition ratio (%) of the test compound was calculated by the following calculation formula. Inhibition ratio=(Ec−Ea)/Ec×100 • Ec: measured value of Ca^2+ transient increase by MCP-1 • Ea: measured value of Ca^2+ transient increase by MCP-1 when a test compound was added.

Human CCR2, sequence (P41597 1-360 isoform P41597-2): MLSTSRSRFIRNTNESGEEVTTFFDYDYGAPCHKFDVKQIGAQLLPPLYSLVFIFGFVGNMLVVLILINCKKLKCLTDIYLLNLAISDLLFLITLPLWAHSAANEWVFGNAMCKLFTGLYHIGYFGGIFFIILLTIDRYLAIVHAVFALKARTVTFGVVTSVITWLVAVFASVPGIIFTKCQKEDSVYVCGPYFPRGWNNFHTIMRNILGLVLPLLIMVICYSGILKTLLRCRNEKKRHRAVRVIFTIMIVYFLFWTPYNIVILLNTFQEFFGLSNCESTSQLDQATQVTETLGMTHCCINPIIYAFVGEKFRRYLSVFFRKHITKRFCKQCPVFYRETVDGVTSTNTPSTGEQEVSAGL

How did the inhibition ratio turn out when `CCCN1C(=O)N(CCCNC(=O)OCc2ccccc2)CCC12CCN(CCc1ccccc1)CC2` [Example 37, phenylmethyl{3-[2-oxo-9-(2-phenylethyl)-1-propyl-1,3,9-triazaspiro[5.5]undeca-3-yl]propyl}carbamate] was run?
Its inhibition ratio is ≥ 50%.
